Data published in PubChem BioAssay (NCI).
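The compound was tested at five concentrations on cells cultured in 96-well plates, with a 48-hour exposure period. Here, GI50 denotes the concentration required for 50% inhibition of growth. At the TGI there is no net growth.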

What was measured:
Test in all cases: DTP human tumour cell line panel, 48 h
MDA-MB-231 breast = system: MDA-MB-231 breast
RPMI-8226 leukemia = system: RPMI-8226 leukemia
T-47D breast = system: T-47D breast
HOP-62 NSCLC = system: HOP-62 NSCLC
HL-60(TB) leukemia = system: HL-60(TB) leukemia
SNB-19 CNS = system: SNB-19 CNS
HS 578T breast = system: HS 578T breast
HOP-92 NSCLC = system: HOP-92 NSCLC
K-562 leukemia = system: K-562 leukemia
EKVX NSCLC = system: EKVX NSCLC

CCN1CCC2(CC1)NC(=O)c1c(c3ccc(Cl)c(Cl)c3n1C)C2C#N (stereo not given)
GI50 (MDA-MB-231 breast): 1.97 µM
TGI (MDA-MB-231 breast): 4.43 µM
GI50 (RPMI-8226 leukemia): 1.55 µM
TGI (RPMI-8226 leukemia): 4.59 µM
GI50 (T-47D breast): 3.09 µM
TGI (T-47D breast): 13.7 µM
GI50 (HOP-62 NSCLC): 1.61 µM
TGI (HOP-62 NSCLC): 3.13 µM
GI50 (HL-60(TB) leukemia): 2.01 µM
TGI (HL-60(TB) leukemia): 6.02 µM
GI50 (SNB-19 CNS): 7.1 µM
TGI (SNB-19 CNS): 24.5 µM
GI50 (HS 578T breast): 1.81 µM
TGI (HS 578T breast): 5.57 µM
GI50 (HOP-92 NSCLC): > 100 µM
TGI (HOP-92 NSCLC): > 100 µM
GI50 (K-562 leukemia): 2.19 µM
TGI (K-562 leukemia): 6.21 µM
GI50 (EKVX NSCLC): 3.4 µM
TGI (EKVX NSCLC): 17.8 µM

O=[N+]([O-])c1cccc(/C=C/c2ccccn2)c1
GI50 (MDA-MB-231 breast): 23 µM
TGI (MDA-MB-231 breast): > 100 µM
GI50 (RPMI-8226 leukemia): 40.2 µM
TGI (RPMI-8226 leukemia): > 100 µM
GI50 (T-47D breast): 1.82 µM
TGI (T-47D breast): > 100 µM
GI50 (HOP-62 NSCLC): 40.7 µM
TGI (HOP-62 NSCLC): > 100 µM
GI50 (HL-60(TB) leukemia): 49.9 µM
TGI (HL-60(TB) leukemia): > 100 µM
GI50 (SNB-19 CNS): 39 µM
TGI (SNB-19 CNS): > 100 µM
GI50 (HS 578T breast): 32.7 µM
TGI (HS 578T breast): > 100 µM
GI50 (HOP-92 NSCLC): 24.3 µM
TGI (HOP-92 NSCLC): > 100 µM
GI50 (K-562 leukemia): 41.2 µM
TGI (K-562 leukemia): > 100 µM
GI50 (EKVX NSCLC): 43.8 µM
TGI (EKVX NSCLC): > 100 µM

C/C(=C1/N=C(c2ccccc2)OC1=O)c1ccc(C)cc1
TGI (MDA-MB-231 breast): > 100 µM
TGI (RPMI-8226 leukemia): > 100 µM
TGI (T-47D breast): > 100 µM
TGI (HOP-62 NSCLC): > 100 µM
TGI (HL-60(TB) leukemia): > 100 µM
TGI (SNB-19 CNS): > 100 µM
TGI (HS 578T breast): > 100 µM
TGI (HOP-92 NSCLC): > 100 µM
TGI (K-562 leukemia): > 100 µM
TGI (EKVX NSCLC): > 100 µM

c1ccc(CCCNc2nnnc3ccccc23)cc1
TGI (MDA-MB-231 breast): > 100 µM
TGI (RPMI-8226 leukemia): > 100 µM
TGI (T-47D breast): 83 µM
TGI (HOP-62 NSCLC): > 100 µM
TGI (HL-60(TB) leukemia): > 100 µM
TGI (SNB-19 CNS): > 100 µM
TGI (HS 578T breast): > 100 µM
TGI (HOP-92 NSCLC): > 100 µM
TGI (K-562 leukemia): > 100 µM
TGI (EKVX NSCLC): > 100 µM

CCCCCCCCCCCCOC1C(CNCC2OC3OC(C)(C)OC3C2NC(=O)Nc2ccc(C(F)(F)F)cc2)OC2OC(C)(C)OC21 (stereo not given)
GI50 (MDA-MB-231 breast): 2.94 µM
TGI (MDA-MB-231 breast): 7.37 µM
GI50 (RPMI-8226 leukemia): 7.06 µM
TGI (RPMI-8226 leukemia): 18.7 µM
GI50 (T-47D breast): 7.31 µM
TGI (T-47D breast): 16.9 µM
GI50 (HOP-62 NSCLC): 8.1 µM
TGI (HOP-62 NSCLC): 15.1 µM
GI50 (HL-60(TB) leukemia): 0.0134 µM
TGI (HL-60(TB) leukemia): 0.364 µM
GI50 (SNB-19 CNS): 9.07 µM
TGI (SNB-19 CNS): 18 µM
GI50 (HS 578T breast): 5.39 µM
TGI (HS 578T breast): 14.1 µM
GI50 (HOP-92 NSCLC): 7.4 µM
TGI (HOP-92 NSCLC): 14.4 µM
GI50 (K-562 leukemia): 0.0327 µM
TGI (K-562 leukemia): 2.62 µM
GI50 (EKVX NSCLC): 7.49 µM
TGI (EKVX NSCLC): 14.5 µM

Cc1coc2c1CC1OC1(C)CCC1OC1(C)C2 (stereo not given)
TGI (MDA-MB-231 breast): > 100 µM
TGI (RPMI-8226 leukemia): > 100 µM
TGI (T-47D breast): > 100 µM
TGI (HOP-62 NSCLC): > 100 µM
TGI (HL-60(TB) leukemia): > 100 µM
TGI (SNB-19 CNS): > 100 µM
TGI (HS 578T breast): > 100 µM
TGI (HOP-92 NSCLC): > 100 µM
TGI (K-562 leukemia): > 100 µM
TGI (EKVX NSCLC): > 100 µM

Fc1c[c-]c(-c2ccccn2)c(F)c1.[CH3-].[Pt+2].c1ccc([PH+](c2ccccc2)c2ccccn2)cc1
GI50 (MDA-MB-231 breast): 1.61 µM
TGI (MDA-MB-231 breast): 3.31 µM
GI50 (RPMI-8226 leukemia): 0.412 µM
TGI (RPMI-8226 leukemia): 4.44 µM
GI50 (T-47D breast): 1.13 µM
TGI (T-47D breast): 5.78 µM
GI50 (HOP-62 NSCLC): 4.16 µM
TGI (HOP-62 NSCLC): 44.2 µM
GI50 (HL-60(TB) leukemia): 2.05 µM
TGI (HL-60(TB) leukemia): 7.28 µM
GI50 (SNB-19 CNS): 3.25 µM
TGI (SNB-19 CNS): > 100 µM
GI50 (HS 578T breast): 1.96 µM
TGI (HS 578T breast): 5.89 µM
GI50 (HOP-92 NSCLC): 1.18 µM
TGI (HOP-92 NSCLC): 2.68 µM
GI50 (K-562 leukemia): 1.78 µM
TGI (K-562 leukemia): > 100 µM
GI50 (EKVX NSCLC): 1.96 µM
TGI (EKVX NSCLC): 5.52 µM
